Measurements: patent US6077872A (priority 1998, dated 2000)
Read-outs that look alike come from different tables or passages of the source.

Assays:
[1] = test system: rickets-mice; assay: Preventing rickets in younger mice: serum Ca, AKP, P; assay type: in vivo, mice of Kunming species; details: 300 mg calcium element, 60 days
Method: (§1) The mice were bred for 60 days under conditions of avoiding light around-the-clock, at a temperature of 20-25° C. and a relative humility of 40-60% while the normal-control group mice were fed ordinary diet and water and were placed in non-dark room.
(§2) The low-calcium diet used in this test was the same as that in Test II but VD in the vitamin mixture was replaced by glucose.
(§3) Some weanling mice were placed in dark room and fed VD -deficient low-calcium diet and drunk de-ionized water for 60 days, thus a ricket model of baby mice was prepared. While other weanling mice were placed in non-dark room and fed ordinary diet and drunk tap water for 60 days, these mice were established as normal-control group.

[2] = in vivo; details: rat; for AUC / Cmax / Tmax / half-life: in vivo, po, 200 mg/kg; for enhancement of serum Ca level: 200 mg calcium/kg oral
Text: (2) apparatus: Model WFX-1B Spectrophotometer of Atomic Absorption was produced by The Second Optical Apparatus Factory of Beijing, 83114; P-E 3030 Spectrophotometer of Atomic Absorption was produced by Perkin-Elmer Corp.,USA;DT-100 Single-Pan Balance (1/10^4) was produced by Beijing Optical Apparatus Factory; TJ-6 Centrifuge was produced by Beckman, USA; Model MVS-1 Vortex Mixer was produced by Beijing Beide Scientific Apparatus and Materials Co. Ltd.
Twelve hours after the animals had been fasted, 0.5 mL plasma was sampled by excising eyeballs. The plasma was established as the blank group. Then rats were administered agents once in an amount of 20 mL/kg body weight by pouring into the stomach. 0.5 mL plasma was sampled by taking from eyeballs 0.25,0.5,1,1.5,2,3,4,6,8,12 and 16 hours later after the administration. […] The concentration of calcium was measured by a Model WFX-1B Spectrophotometer of Atomic Absorption.

[3] = test system: rickets-mice; assay: Preventing rickets in younger mice: tibia strength (three-point bending); assay type: in vivo, mice of Kunming species
Method: as §1, §2, §3

[4] = test system: rickets-mice; assay: Preventing rickets in younger mice: body weight, dry weight, ash weight and total calcium content of femur; assay type: in vivo, mice of Kunming species; details: 300 mg calcium element
Method: as §1, §2, §3

[5] = test system: preschool children; details: for bone mineral density: before test 0.379 (threonate), 0.369 (carbonate)
Method: Seventy 3-6 years old healthy children whose bone mineral density were medium-lower at a central kindergarten in the suburban county of Beijing were selected as subjects, wherein there are 13 boys and 57 girls. All were healthy children who didn't have any metabolic diseases, liver or kidney diseases, bone wounds and abnormal diseases.
Double blind method was employed during the observation. Every person was administered calcium preparation or placebo twice a day in a dosage of 1 bag each time. […] Group IV, established as blank-control group, was administered placebo which didn't contain calcium. All the above oral preparations were provided by Beijing Juneng Asian-Pacific Life Science Research Center.
(1) Bone mineral density was measured before the test and 1.5 months and 3 months later after the administration of Ca supplements.
The bone mineral density of radius in non-preferred hand was measured at the 1/3 point near the farther-end by a Model BMD400 Single-Photon absorptiometry produced conjointly by Institute of Atomic Energy, Ministry of Nuclear Industry, China and Institute of Broadcasting, Beijing, to obtain mean mineral bone density (BMD, g/cm^2). Each point was scanned twice with a scanning speed of 0.5 mm/sec.
All data was analyzed with a SAS statistical software package.

[6] = test system: rickets-babies; details: for craniomalacia, babies with symptom after the beginning of test: before test 3 (threonate), 4 (carbonate); for pillow-bald, babies with symptom after the beginning of test: before test 9 (threonate), 9 (carbonate); for night-sweat, babies with symptom after the beginning of test: before test 12 (threonate), 13 (carbonate)
Method: Fourty rickets-babies at the age of 3-10 months were randomly divided into 2 groups of 20 babies each. […] Test group II, namely the calcium carbonate group, were administered orally calcium carbonate twice a day in a dosage of one bag each time. Each bag of the two kind of calcium preparations contained the same amount of element calcium, namely 150 mg element calcium.
(1) Clinic symptoms mainly included the normal symptoms of rickets-babies such as night-sweat, pillow-bald, craniomalacia, etc.

[7] = test system: osteoporosis; details: oral administration; Recker et al 1977; cited from earlier work
[8] = test system: rickets-babies
Method: Fourty rickets-babies at the age of 3-10 months were randomly divided into 2 groups of 20 babies each. […] Test group II, namely the calcium carbonate group, were administered orally calcium carbonate twice a day in a dosage of one bag each time.
(2) Biochemical examinations of blood. Venous blood of rickets-baby was sampled before and after the beginning of test and serum Ca, P and AKP level were measured and the product of [Ca]×[P] was calculated.
(3) Data processing: All data was statistically analyzed using the method of direct calculation of probability, grouping t-test and pairing t-test.
Considering the difficulty in sampling blood from rickets-babies during the test operation, blood sampling was not performed at the second week after the beginning of the test. Blood sampling was only performed before the test and at the fourth week after the beginning of the test.

[9] = 2 bags/day of 150 mg element calcium, 1.5 months
[10] = after four weeks of Ca-supplementing

O=C(O)[C@H](O)[C@@H](O)[C@H](O)[C@H](O)CO [calcium gluconate, reference compound]
serum Ca ([1]; model 1.55 ± 0.42): 2.37 ± 0.97 mmol/L | serum P ([1]; model 2.23 ± 0.52): 1.71 ± 0.45 mmol/L | serum AKP (in Bessey-Loury unit) ([1]; model 101 ± 34): 46.6 ± 13 U/L | AUC [2]: 138 µg·h/mL | Cmax [2]: 32.1 µg/mL | Tmax [2]: 26.4 min | half-life [2]: 160 min | breaking force (tibia) ([3]; 300 mg calcium element, model 1.12 ± 0.37): 1.54 ± 0.35 kg | breaking force of tibia (in words) ([3]; mouse, in vivo): significantly higher than those for the model group and were comparable with those for the normal-control group | dry weight of femur ([4]; model 0.099 ± 0.014): 0.122 ± 0.019 g | total calcium content ([4]; model 24.81 ± 4.36): 30.23 ± 5.23 mg | ash weight ([4]; model 46.62 ± 9.38): 70.76 ± 10.18 mg

CC(=O)O [calcium acetate]
AUC [2]: 28.2 µg·h/mL | Cmax [2]: 24.9 µg/mL | Tmax [2]: 36.6 min

O=C(O)O [calcium carbonate]
bone mineral density ([5]; 2 bags/day of 150 mg element calcium, 1.5 month): 0.385 ± 0.028 g/cm^2 | extent of BMDs' increase [5, 9]: 4.37% | percentage of children whose BMDs reached the normal range [5, 9]: 0% | bone mineral density ([5]; 2 bags/day of 150 mg element calcium, 3 month): 0.412 ± 0.020 g/cm^2 | extent of BMDs' increase ([5]; 2 bags/day of 150 mg element calcium, 3 months): 11.65% | BMD comparison between groups (in words) ([5]; in vivo): markedly higher than those of the blank-control group only in 3 months | enhancement of serum Ca level ([2]; 0.25 hrs): 11.1 µg/mL | enhancement of serum Ca level ([2]; 0.5 hrs): 24.7 µg/mL | enhancement of serum Ca level ([2]; 1 hrs): 21.4 µg/mL | enhancement of serum Ca level ([2]; 1.5 hrs): 17.1 µg/mL | enhancement of serum Ca level ([2]; 2 hrs): 13.2 µg/mL | enhancement of serum Ca level ([2]; 3 hrs): 10.9 µg/mL | enhancement of serum Ca level ([2]; 4 hrs): 5.7 µg/mL | enhancement of serum Ca level ([2]; 6 hrs): 0.2 µg/mL | enhancement of serum Ca level ([2]; 8 hrs): -1.4 µg/mL | AUC [2]: 40.4 µg·h/mL | Cmax [2]: 31.1 µg/mL | Tmax [2]: 39.6 min | half-life [2]: 20.4 min | total symptom improvement ([6]; four weeks): 57.6% | craniomalacia, babies with symptom after the beginning of test ([6]; four weeks): 3 | pillow-bald, babies with symptom after the beginning of test ([6]; four weeks): 5 | night-sweat, babies with symptom after the beginning of test ([6]; four weeks): 3 | total symptom improvement ([6]; two weeks): 11.5% | rickets-babies free of symptoms ([6]; two weeks of administration (concluding text)): 50% | craniomalacia, babies with symptom after the beginning of test ([6]; two weeks): 4 | pillow-bald, babies with symptom after the beginning of test ([6]; two weeks): 9 | night-sweat, babies with symptom after the beginning of test ([6]; two weeks): 10 | effectiveness for preventing osteoporosis [7]: not effective for preventing osteoporosis | percentage of babies whose AKP reached the normal range [8, 10]: 30% | percentage of babies whose [Ca] × [P] reached the normal range [8, 10]: 70% | percentage of babies whose serum P reached the normal range [8, 10]: 60% | serum Ca change (in words) ([8]; before and after the test, P>0.05): no significant variation | serum P ([8]; four weeks after, before 3.19 ± 0.25 (threonate), 3.12 ± 0.20 (carbonate)): 3.90 ± 0.52 | serum Ca ([8]; four weeks after, before 10.49 ± 0.39 (threonate), 10.51 ± 0.47 (carbonate)): 10.55 ± 0.42 | [Ca] × [P] ([8]; four weeks after, before 33.4 ± 2.47 (threonate), 33.83 ± 2.17 (carbonate)): 43.19 ± 5.22 | AKP ([8]; four weeks after, before 235.95 ± 7.89 (threonate), 235.25 ± 7.37 (carbonate)): 225.25 ± 22.93
